Measurements taken from ChEMBL document CHEMBL1201862, “PubChem BioAssay data set” (2004).
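96-well plates; 48 h exposure; 5 concentrations. Endpoints by linear interpolation between flanking doses. Not reached: highest tested concentration assigned. GI50 is the concentration that inhibits growth by half.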 Activity calls are given as the source filed them. Cut-off read from the data, not from the text of the source: active = GI50 up to about 1.1 µM and inactive = higher.

Assays:
Assay in all cases: NCI-60 cell line screen, 48 h
ACHN = test system: ACHN
SW-620 = test system: SW-620
HT-29 = test system: HT-29
786-0 = test system: 786-0
MOLT-4 = test system: MOLT-4
UACC-257 = test system: UACC-257
A549 = test system: A549
Hs-578T = test system: Hs-578T
NCI-H460 = test system: NCI-H460
SNB-19 = test system: SNB-19
MDA-N = test system: MDA-N
NCI-H23 = test system: NCI-H23
MCF7 = test system: MCF7
UACC-62 = test system: UACC-62
NCI/ADR-RES = test system: NCI/ADR-RES
COLO 205 = test system: COLO 205
KM12 = test system: KM12
T47D = test system: T47D
SNB-75 = test system: SNB-75
A498 = test system: A498

Row | SMILES | GI50 (ACHN) | GI50 (SW-620) | GI50 (HT-29) | GI50 (786-0) | GI50 (MOLT-4) | GI50 (UACC-257) | GI50 (A549) | GI50 (Hs-578T) | GI50 (NCI-H460) | GI50 (SNB-19) | GI50 (MDA-N) | GI50 (NCI-H23) | GI50 (MCF7) | GI50 (UACC-62) | GI50 (NCI/ADR-RES) | GI50 (COLO 205) | GI50 (KM12) | GI50 (T47D) | GI50 (SNB-75) | GI50 (A498)
1 | O=C(O)c1cc(/C=C/c2cc(O)ccc2O)ccc1O | > 10 µM (inactive) | > 10 µM (inactive) | > 10 µM (inactive) | > 10 µM (inactive) | > 10 µM (inactive) | > 10 µM (inactive) | > 10 µM (inactive) | > 10 µM (inactive) | > 10 µM (inactive) | > 10 µM (inactive) | 3.43 µM (inactive) | > 10 µM (inactive) | 3.91 µM (inactive) | > 10 µM (inactive) | > 10 µM (inactive) |  |  |  |  | 
2 | C=CCCCN1C(=O)C2C3c4ccccc4C(C=O)(c4ccccc43)C2C1=O (centres undefined) | 13.6 µM (inactive) | 13 µM (inactive) | 10 µM (inactive) | 13.3 µM (inactive) | 4.57 µM (inactive) | 13 µM (inactive) | 15.2 µM (inactive) |  | 15.2 µM (inactive) | 13.1 µM (inactive) | 13.6 µM (inactive) | 12.4 µM (inactive) | 12.3 µM (inactive) | 9.42 µM (inactive) | 10.9 µM (inactive) | 12 µM (inactive) | 4.02 µM (inactive) | 8.91 µM (inactive) |  | 
3 | COc1ccc(-c2nc(-c3cnccn3)n(C/C=C/c3ccccc3)n2)cc1 |  | > 100 µM (inactive) | > 100 µM (inactive) | 17.3 µM (inactive) | > 100 µM (inactive) | > 100 µM (inactive) | 51.6 µM (inactive) |  | > 100 µM (inactive) | 37.2 µM (inactive) | > 100 µM (inactive) | > 100 µM (inactive) | > 100 µM (inactive) | 35.2 µM (inactive) | 83.4 µM (inactive) | > 100 µM (inactive) | > 100 µM (inactive) | 48.2 µM (inactive) | 21.8 µM (inactive) | 
4 | Cn1c2ccccc2n2c(=O)c3cccnc3c(C#N)c12 | 31.1 µM (inactive) | 19.6 µM (inactive) | 63 µM (inactive) | > 100 µM (inactive) | 7.45 µM (inactive) | > 100 µM (inactive) |  |  | 18.7 µM (inactive) |  | > 100 µM (inactive) | 33.3 µM (inactive) |  |  | 70.3 µM (inactive) | 24.7 µM (inactive) | > 100 µM (inactive) | > 100 µM (inactive) | > 100 µM (inactive) | > 100 µM (inactive)
5 | Cc1sc2nc3n(c(=O)c2c1C)N=CN(c1ccc(Cl)cc1)C3 | > 100 µM (inactive) | > 100 µM (inactive) | > 100 µM (inactive) | > 100 µM (inactive) | > 100 µM (inactive) | > 100 µM (inactive) | > 100 µM (inactive) |  | > 100 µM (inactive) | > 100 µM (inactive) | > 100 µM (inactive) | > 100 µM (inactive) |  | > 100 µM (inactive) | > 100 µM (inactive) | > 100 µM (inactive) | > 100 µM (inactive) |  | > 100 µM (inactive) | > 100 µM (inactive)
6 | NCCCCc1cc(O)c2c(c1O)C(=O)c1ccccc1C2=O | 11.2 µM (inactive) | 6.53 µM (inactive) | 4.19 µM (inactive) | 6 µM (inactive) | 2.81 µM (inactive) | 17.5 µM (inactive) | 5.05 µM (inactive) |  | 10.5 µM (inactive) | 14.2 µM (inactive) | 14.9 µM (inactive) | 14.3 µM (inactive) | 5.41 µM (inactive) | 17.5 µM (inactive) | 12.6 µM (inactive) | 3.94 µM (inactive) | 5.41 µM (inactive) | 18.1 µM (inactive) |  | 18.2 µM (inactive)
7 | NC(=O)CC1(O)C=CC(=O)C=C1 | > 100 µM (inactive) | > 100 µM (inactive) | > 100 µM (inactive) | > 100 µM (inactive) | > 100 µM (inactive) | > 100 µM (inactive) | > 100 µM (inactive) |  | > 100 µM (inactive) | > 100 µM (inactive) | > 100 µM (inactive) | > 100 µM (inactive) | > 100 µM (inactive) | > 100 µM (inactive) | > 100 µM (inactive) | > 100 µM (inactive) | > 100 µM (inactive) | > 100 µM (inactive) | > 100 µM (inactive) | > 100 µM (inactive)
8 | Cn1c2ccccc2n2c3ncccc3c(=O)cc12 | 27 µM (inactive) | 50 µM (inactive) | 38.9 µM (inactive) | 37.3 µM (inactive) | 36.9 µM (inactive) | 75 µM (inactive) | 20.2 µM (inactive) |  | 33 µM (inactive) | 35.2 µM (inactive) | 54.8 µM (inactive) | 43 µM (inactive) |  |  | 50.4 µM (inactive) | 60.4 µM (inactive) | 71.9 µM (inactive) | 55.7 µM (inactive) | 44.1 µM (inactive) | 24.6 µM (inactive)
9 | O=C1CN2C(c3ccccc3)=NN(c3ccc([N+](=O)[O-])cc3)C2(c2ccccc2)c2cc(Cl)ccc2N1CC1CC1 (centres undefined) | > 100 µM (inactive) | > 100 µM (inactive) | > 100 µM (inactive) | > 100 µM (inactive) | 79.4 µM (inactive) | > 100 µM (inactive) | > 100 µM (inactive) | > 100 µM (inactive) | > 100 µM (inactive) | > 100 µM (inactive) |  | > 100 µM (inactive) | > 100 µM (inactive) | > 100 µM (inactive) | > 100 µM (inactive) | > 100 µM (inactive) | > 100 µM (inactive) |  | > 100 µM (inactive) | > 100 µM (inactive)
10 | C/C=C1\CNC1C(=O)O (centres undefined) | > 100 µM (inactive) | > 100 µM (inactive) | > 100 µM (inactive) | > 100 µM (inactive) |  | > 100 µM (inactive) | > 100 µM (inactive) | > 100 µM (inactive) | > 100 µM (inactive) | > 100 µM (inactive) | > 100 µM (inactive) | > 100 µM (inactive) | > 100 µM (inactive) | > 100 µM (inactive) | > 100 µM (inactive) | > 100 µM (inactive) |  |  |  | > 100 µM (inactive)
11 | COc1cc(C2c3cc4c(cc3OC(O)C2C)OCO4)cc(OC)c1OC (centres undefined) | 0.792 µM (active) | 0.292 µM (active) | 0.346 µM (active) | 0.507 µM (active) | 0.473 µM (active) | 9.68 µM (inactive) | 0.381 µM (active) | 0.31 µM (active) | 0.355 µM (active) | 0.434 µM (active) | 0.0887 µM (active) | 0.59 µM (active) | 0.29 µM (active) | 0.349 µM (active) | 0.214 µM (active) | 0.315 µM (active) | 0.347 µM (active) |  | 0.244 µM (active) | 0.483 µM (active)
12 | CC(C)=CCC(OC(=O)C=C(C)C)c1cc(O)c2c(c1O)C(=O)C=CC2=O (centres undefined) |  | 0.267 µM (active) | 1.67 µM (inactive) |  |  | 0.753 µM (active) | 5.04 µM (inactive) |  | 2.75 µM (inactive) | 7.46 µM (inactive) |  |  |  | 0.783 µM (active) | 0.406 µM (active) | 0.382 µM (active) | 2.42 µM (inactive) |  | 4.98 µM (inactive) | 2.62 µM (inactive)
13 | O=C1Nc2c(Cl)cc(Cl)cc2/C1=N/N=C/c1ccco1 | 34.1 µM (inactive) | 37 µM (inactive) | 28.8 µM (inactive) | 38.8 µM (inactive) | 27.2 µM (inactive) | 44 µM (inactive) | 33.4 µM (inactive) | 32.7 µM (inactive) | 28.2 µM (inactive) | 80.7 µM (inactive) | 18.9 µM (inactive) | 25 µM (inactive) | 20.2 µM (inactive) | 21.5 µM (inactive) | 21.4 µM (inactive) | 22.4 µM (inactive) | 25.4 µM (inactive) |  | 10.5 µM (inactive) | 21.2 µM (inactive)
14 | COc1cc(/N=N\c2ccc(OC)c(S(=O)(=O)O)c2)c(C)cc1/N=N\c1ccc(/C=C/c2ccc(/N=[N+](/[O-])c3ccc(/C=C/c4ccc(/N=N/c5cc(C)c(/N=N\c6ccc(OC)c(S(=O)(=O)O)c6)cc5OC)cc4S(=O)(=O)O)c(S(=O)(=O)O)c3)cc2S(=O)(=O)O)c(S(=O)(=O)O)c1 |  | > 100 µM (inactive) | > 100 µM (inactive) |  | > 100 µM (inactive) | > 100 µM (inactive) | > 100 µM (inactive) |  | > 100 µM (inactive) | > 100 µM (inactive) |  | > 100 µM (inactive) | > 100 µM (inactive) | > 100 µM (inactive) | > 100 µM (inactive) | > 100 µM (inactive) | > 100 µM (inactive) |  | 58.2 µM (inactive) | > 100 µM (inactive)
15 | COC1(c2ccc(Cl)cc2)SC=C(C)n2c1noc2=O (centres undefined) | > 100 µM (inactive) | > 100 µM (inactive) | 33.8 µM (inactive) | > 100 µM (inactive) | > 100 µM (inactive) | > 100 µM (inactive) | > 100 µM (inactive) | > 100 µM (inactive) | > 100 µM (inactive) | > 100 µM (inactive) | > 100 µM (inactive) | > 100 µM (inactive) | > 100 µM (inactive) | > 100 µM (inactive) | 10.5 µM (inactive) | > 100 µM (inactive) | 86.9 µM (inactive) |  |  | > 100 µM (inactive)
16 | C=C(C)[C@H]1CC[C@@]23O[C@@H]2[C@@H](C[C@@]2(C)CC(=O)[C@H](CC(=O)C1)O2)OC(=O)[C@@]12CC[C@H](C(=C)C)CC(=O)C[C@H]4O[C@](C)(CC4=O)C[C@@H](OC3=O)[C@@H]1O2 [SINGARDIN] | > 100 µM (inactive) |  | > 100 µM (inactive) | > 100 µM (inactive) | > 100 µM (inactive) | > 100 µM (inactive) | > 100 µM (inactive) |  |  | > 100 µM (inactive) | > 100 µM (inactive) | > 100 µM (inactive) | > 100 µM (inactive) | > 100 µM (inactive) | > 100 µM (inactive) | > 100 µM (inactive) | 52.5 µM (inactive) | > 100 µM (inactive) | > 100 µM (inactive) | > 100 µM (inactive)
